Results: the NIST ThermoML archive (doi:10.1016/j.tca.2012.01.013)

Tests used:
[1] = 101 kPa, Liquid, Vibrating tube method
[2] = refractive index (Na D-line) (dimensionless); conditions: 101.33 kPa, Liquid, Standard Abbe refractometry
[3] = xn = mol fraction of the nth substance listed; conditions: 101 kPa, Liquid, Vibrating tube method, x2 = 0
[4] = refractive index (Na D-line) (dimensionless); xn = mol fraction of the nth substance listed; conditions: 101 kPa, Liquid, Standard Abbe refractometry, x2 = 0

CCC(C)=O [butanone]
Conditions | mass density, [1] [kg/m3] | refractive index, [2]
288.15 K | 810.133 | 1.38153
293.15 K | 804.926 | 1.37892
298.15 K | 799.695 | 1.37631
303.15 K | 794.435 | 1.37366
308.15 K | 789.142 | 1.37102
313.15 K | 783.814 | 1.36834
318.15 K | 778.451 | 1.36565
323.15 K | 773.047 | 1.36294

COC(=O)c1ccccc1C(=O)OC [dimethyl 1,2-benzenedicarboxylate]
Conditions | mass density, [1] [kg/m3] | refractive index, [2]
288.15 K | 1196.26 | 1.51779
293.15 K | 1191.59 | 1.51565
298.15 K | 1186.93 | 1.51354
303.15 K | 1182.28 | 1.51146
308.15 K | 1177.62 | 1.50943
313.15 K | 1172.97 | 1.50736
318.15 K | 1168.32 | 1.50524
323.15 K | 1163.67 | 1.5032

CCC(C)O (stereo unspecified) [butan-2-ol] + COC(=O)CCCCC(=O)OC
Conditions | mass density, [3] [kg/m3] | refractive index, [4]
288.15 K | 810.689 | 1.39951
293.15 K | 806.646 | 1.39736
298.15 K | 802.528 | 1.39515
303.15 K | 798.326 | 1.39293
308.15 K | 794.03 | 1.39064
313.15 K | 789.632 | 1.38832
318.15 K | 785.117 | 1.38596
323.15 K | 780.515 | 1.38352

CCC(C)=O [butanone] + COC(=O)CCCCC(=O)OC
Conditions | mass density, [3] [kg/m3] | refractive index, [4]
288.15 K | 810.133 | 1.38153
293.15 K | 804.926 | 1.37892
298.15 K | 799.695 | 1.37631
303.15 K | 794.435 | 1.37366
308.15 K | 789.142 | 1.37102
313.15 K | 783.814 | 1.36834
318.15 K | 778.451 | 1.36565
323.15 K | 773.047 | 1.36294

CCC(C)O (stereo unspecified) [butan-2-ol] + COC(=O)c1ccccc1C(=O)OC
Conditions | mass density, [3] [kg/m3] | refractive index, [4]
288.15 K | 810.689 | 1.39951
293.15 K | 806.646 | 1.39736
298.15 K | 802.528 | 1.39515
303.15 K | 798.326 | 1.39293
308.15 K | 794.03 | 1.39064
313.15 K | 789.632 | 1.38832
318.15 K | 785.117 | 1.38596
323.15 K | 780.515 | 1.38352

CCCCO [butan-1-ol] + COC(=O)CCCCC(=O)OC
Conditions | mass density, [3] [kg/m3] | refractive index, [4]
288.15 K | 813.373 | 1.40135
293.15 K | 809.573 | 1.39932
298.15 K | 805.762 | 1.3973
303.15 K | 801.923 | 1.39523
308.15 K | 798.053 | 1.39318
313.15 K | 794.147 | 1.3911
318.15 K | 790.231 | 1.38901
323.15 K | 786.238 | 1.38688

CCCCO [butan-1-ol] + COC(=O)c1ccccc1C(=O)OC
Conditions | mass density, [3] [kg/m3] | refractive index, [4]
288.15 K | 813.373 | 1.40135
293.15 K | 809.573 | 1.39932
298.15 K | 805.762 | 1.3973
303.15 K | 801.923 | 1.39523
308.15 K | 798.053 | 1.39318
313.15 K | 794.147 | 1.3911
318.15 K | 790.231 | 1.38901
323.15 K | 786.238 | 1.38688

COC(=O)CCCCC(=O)OC [dimethyl 1,6-hexanedioate]
Conditions | mass density, [1] [kg/m3] | refractive index, [2]
288.15 K | 1066.79 | 1.4305
293.15 K | 1061.93 | 1.42842
298.15 K | 1057.06 | 1.42636
303.15 K | 1052.18 | 1.42429
308.15 K | 1047.31 | 1.42222
313.15 K | 1042.43 | 1.42017
318.15 K | 1037.54 | 1.41819
323.15 K | 1032.64 | 1.41614

CCC(C)=O [butanone] + COC(=O)c1ccccc1C(=O)OC
Conditions | mass density, [3] [kg/m3] | refractive index, [4]
288.15 K | 810.133 | 1.38153
293.15 K | 804.926 | 1.37892
298.15 K | 799.695 | 1.37631
303.15 K | 794.435 | 1.37366
308.15 K | 789.142 | 1.37102
313.15 K | 783.814 | 1.36834
318.15 K | 778.451 | 1.36565
323.15 K | 773.047 | 1.36294

CCC(C)O (stereo unspecified) [butan-2-ol]
Conditions | mass density, [1] [kg/m3] | refractive index, [2]
288.15 K | 810.689 | 1.39951
293.15 K | 806.646 | 1.39736
298.15 K | 802.528 | 1.39515
303.15 K | 798.326 | 1.39293
308.15 K | 794.03 | 1.39064
313.15 K | 789.632 | 1.38832
318.15 K | 785.117 | 1.38596
323.15 K | 780.515 | 1.38352

CCCCO [butan-1-ol]
Conditions | mass density, [1] [kg/m3] | refractive index, [2]
288.15 K | 813.373 | 1.40135
293.15 K | 809.573 | 1.39932
298.15 K | 805.762 | 1.3973
303.15 K | 801.923 | 1.39523
308.15 K | 798.053 | 1.39318
313.15 K | 794.147 | 1.3911
318.15 K | 790.231 | 1.38901
323.15 K | 786.238 | 1.38688
